What was measured:
PAK2 = biological target: T1, PAK2 (Homo sapiens, UniProt Q13177); test: HotSpot kinase assay, PAK subtype selectivity; format: biochemical; settings: relative percentage inhibition at 20 μM with staurosporine
T1 construct: purchased Reaction Biology Corporation (Malvern, PA, USA)
Description: (§1) To examine the enzyme activity, HotSpot kinase assay was performed at Reaction Biology Corporation (Malvern, PA, USA). The kinase and substrate pairs were prepared in reaction buffer: 20 mM HEPES at pH 7.5, 10 mM MgCl2, 1 mM EGTA, 0.02% Brij 35, 0.02 mg/mL BSA, 0.1 mM Na3VO4, 2 mM DTT, and 1% DMSO. Compounds were added into the kinase reaction mixture and incubated for 20 min. Then, ^32 P-ATP was introduced to the mixture to initiate the reaction carried out at 10 μM of ATP concentration. After 2 h at room temperature, the mixture was spotted onto P81 ion exchange paper and kinase activity was then evaluated utilising the filter-binding method. Compounds were tested for single dose enzyme inhibition at a concentration of 20 μM. For the control compound, staurosporine was tested in a 10-dose IC50 mode. To determine the IC50 value, the compounds were tested for 10-doses with 3-fold serial dilution starting at 100 μM.
(§2) Synthesised compounds were evaluated for their in vitro PAK4 enzyme inhibitory activities. In vitro kinase assays were performed using HotSpot kinase assays for relative enzyme inhibitory activity at a single concentration (20 μM) and IC50 assessment at an ATP concentration of 10 μM (Figure 1(B)). […] For the allosteric pocket binder, cyclohexyl group (SPA7012) was preferable to the smaller dimethyl (SPA7011) or hydroxymethyl group (SPA7013), and the aromatic ring (SPA7014) reduced activity compared to the saturated ring (SPA7012). In vitro enzyme IC50 values appeared in the order of SPA7012, SPA7017, and SPA7016. […] Molecular docking analysis was performed on the human PAK4 catalytic domain structure complexed with GNE-2861 (PDB code: 4O0V). The binding pose of SPA7012 overlapped well with the crystal structure of GNE-2861, with the allosteric binder properly positioned in the specific back pocket. The oxygen atom in the tertiary alcohol of the hydrophobic allosteric binder formed hydrogen bonds with the backbone of Phe459 and the side chain of Glu366 (Figure 1(D)). The amine group and nitrogen atom in the pyrazolo[3,4-d]pyrimidine core scaffold also formed hydrogen bonds with Lue398 at the hinge region. Finally, SPA7012 was decided as a lead compound for further examination with satisfactory potency and subtype selectivity.

PAK3 = biological target: T2, PAK3 (Homo sapiens, UniProt O75914); test: HotSpot kinase assay, PAK subtype selectivity; format: biochemical; settings: relative percentage inhibition at 20 μM with staurosporine
T2 construct: purchased Reaction Biology Corporation (Malvern, PA, USA)
Description: as §1, §2

PAK6 = biological target: T3, PAK6 (Homo sapiens, UniProt Q9NQU5); test: HotSpot kinase assay, PAK subtype selectivity; format: biochemical; settings: relative percentage inhibition at 20 μM with staurosporine
T3 construct: purchased Reaction Biology Corporation (Malvern, PA, USA)
Description: as §1, §2

primary hepatocytes = test: Hypoxia-reoxygenation (H/R) injury in primary hepatocytes; format: cell-based, mouse
Description: Primary hepatocytes were prepared from 8 to 10 week old C57BL/6 male mice by perfusion. […] Hepatocytes were resuspended in DMEM/F12 supplemented with 10% FBS, 10 units/mL penicillin, 10 μg/mL streptomycin, and 10 nM dexamethasone mixed with 42% Percoll, and then centrifuged for 5 min at 1,300 rpm. The cells were plated at 1 × 10^6 cells/well in 6-well culture dishes.
Primary hepatocytes were incubated at 37 °C in anaerobic jars (Oxoid, Basingstoke, Hampshire, UK) with oxygen-absorbing packs (AnaeroGen, Oxoid). […] Following various periods of hypoxia, reoxygenation of cells was initiated by opening the chamber and replacing the hypoxic medium with an oxygenated medium.
H/R-induced apoptosis was monitored using the Annexin V-propidium iodide (PI) double-staining kit (BD Biosciences, San Jose, CA, USA) according to the instructions of the manufacturer, allowing quantification by flow cytometry (BD Biosciences). The proportion of apoptotic cells was defined as the percentage of Annexin V-positive cells […].
Intracellular ROS levels were measured using 2′,7′-dichlorofluorescein diacetate (DCF-DA), which converts to fluorescent […] in cells when exposed to ROS. Briefly, after H/R injury, hepatocytes were loaded with 20 μM DCF-DA (Invitrogen) for 10 min at 37 °C. The DCF fluorescence intensity was measured by fluorescence spectrophotometry with 485 nm excitation and 538 nm emission and expressed as a percentage relative to control.
Alanine aminotransferase (ALT) and aspartate aminotransferase (AST) in serum (Asan Pharm, Seoul, Korea), glutathione (GSH, Arbour Assays, Ann Arbour, MI, USA), malondialdehyde (MDA, ab118970, Abcam, Cambridge, UK) in liver tissues, and lactate dehydrogenase (LDH, Biovision, Milpitas, CA, USA) in culture medium were analysed using specific kits. Serum levels of IL-1β, IL-6, TNF-α, and CCL-2 were detected using ELISA kits (all from Invitrogen).
Total RNA was extracted from frozen liver tissues or primary hepatocytes using TRIzol reagent (Invitrogen). RNA was treated with isopropanol, dried using 70% ethanol, and dissolved in diethyl pyrocarbonate-treated distilled water. First-strand cDNA was generated using the random hexamer primer provided in the first-strand cDNA synthesis kit (Applied Biosystems, Foster City, CA, USA). Specific primers were designed using PrimerBank (https://pga.mgh.harvard.edu/primerbank, Table 1). qPCR reactions were performed in a final volume of 10μ L containing 10 ng reverse-transcribed total RNA, 200 nM forward and reverse primers, and PCR master mixture. qPCR was performed in 384-well plates using an ABI Prism™ 7900HT Sequence Detection System (Applied Biosystems).
Nuclear and cytoplasmic fractions were prepared using the NE-PER Nuclear and Cytoplasmic Extraction kit (Thermo Fisher Scientific, Waltham, MA, USA). Tissue homogenates or cell lysates (15 μg) were separated by 6–14% SDS-PAGE and transferred to PVDF membranes. After blocking with 5% skim milk, blots were probed with primary antibodies against: PAK4 (G222), p-PAK4 (S474), p-IKKβ (S176/180), p-IκBα (S32), p-p65 (S536), cleaved caspase-3 (Asp175), Bax (Cell Signalling Technology, Beverly, MA, USA), GAPDH (A531), lamin B1(L75), Bcl2(P65), NQO1 (F252) (Bioworld Technology, St Louis Park, MN, USA), NF-κB p65 (C-20), IKBα (H-4), IKKβ (10A9B6) (Santa Cruz Biotechnology, Dallas, TX, USA), Nrf2 (Proteintech, Rosemont, IL, USA), HO-1 (Enzo Life Sciences, Farmingdale, New York, USA), and p-Thr (Merck KGaA, Darmstadt, Germany). For co-immunoprecipitations, 600 μg protein was incubated with anti-Nrf2 antibodies (Proteintech, Sankt Leon-Rot, Germany) overnight at 4 °C followed by protein G agarose for 2 h at 4 °C. Blots were probed with antibodies against PAK4, Nrf2, or p-Thr. Immunoreactive bands were detected with a Las-4000 imager (GE Healthcare Life Science, Pittsburgh, PA, USA).

T2 sequence (O75914 whole entry): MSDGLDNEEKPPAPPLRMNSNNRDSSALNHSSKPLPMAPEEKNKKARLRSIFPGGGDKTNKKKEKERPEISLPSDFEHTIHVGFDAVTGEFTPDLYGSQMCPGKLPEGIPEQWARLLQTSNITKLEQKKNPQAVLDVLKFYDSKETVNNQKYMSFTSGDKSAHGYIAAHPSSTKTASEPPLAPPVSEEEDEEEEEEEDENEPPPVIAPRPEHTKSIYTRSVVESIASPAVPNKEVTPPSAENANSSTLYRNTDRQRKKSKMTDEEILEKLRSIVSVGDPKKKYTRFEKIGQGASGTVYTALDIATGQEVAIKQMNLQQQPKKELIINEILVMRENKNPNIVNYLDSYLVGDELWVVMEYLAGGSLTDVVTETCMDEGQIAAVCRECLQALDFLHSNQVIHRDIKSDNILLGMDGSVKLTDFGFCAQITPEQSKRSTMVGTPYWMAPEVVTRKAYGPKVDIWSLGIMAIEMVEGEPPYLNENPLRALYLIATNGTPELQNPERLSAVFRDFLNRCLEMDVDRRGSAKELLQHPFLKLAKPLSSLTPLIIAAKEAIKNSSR
T3 sequence (Q9NQU5 whole entry): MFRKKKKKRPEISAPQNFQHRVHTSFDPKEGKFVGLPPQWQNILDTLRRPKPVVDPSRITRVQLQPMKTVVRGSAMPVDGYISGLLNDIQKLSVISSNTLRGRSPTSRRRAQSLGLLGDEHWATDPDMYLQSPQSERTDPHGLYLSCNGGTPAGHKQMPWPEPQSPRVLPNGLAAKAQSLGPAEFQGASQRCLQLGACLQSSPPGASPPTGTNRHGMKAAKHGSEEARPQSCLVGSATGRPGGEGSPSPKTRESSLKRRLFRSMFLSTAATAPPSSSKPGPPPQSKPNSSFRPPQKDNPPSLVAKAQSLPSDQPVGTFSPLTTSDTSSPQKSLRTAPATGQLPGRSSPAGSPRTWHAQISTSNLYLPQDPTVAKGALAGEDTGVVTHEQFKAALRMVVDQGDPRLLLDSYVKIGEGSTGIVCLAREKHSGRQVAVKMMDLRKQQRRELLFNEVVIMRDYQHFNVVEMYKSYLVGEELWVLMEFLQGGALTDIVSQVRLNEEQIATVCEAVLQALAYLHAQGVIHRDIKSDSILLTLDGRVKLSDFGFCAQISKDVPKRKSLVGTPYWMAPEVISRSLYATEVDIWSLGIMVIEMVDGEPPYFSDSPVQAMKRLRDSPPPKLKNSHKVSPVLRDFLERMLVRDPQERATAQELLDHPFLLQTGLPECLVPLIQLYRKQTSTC
T1 sequence (Q13177 whole entry): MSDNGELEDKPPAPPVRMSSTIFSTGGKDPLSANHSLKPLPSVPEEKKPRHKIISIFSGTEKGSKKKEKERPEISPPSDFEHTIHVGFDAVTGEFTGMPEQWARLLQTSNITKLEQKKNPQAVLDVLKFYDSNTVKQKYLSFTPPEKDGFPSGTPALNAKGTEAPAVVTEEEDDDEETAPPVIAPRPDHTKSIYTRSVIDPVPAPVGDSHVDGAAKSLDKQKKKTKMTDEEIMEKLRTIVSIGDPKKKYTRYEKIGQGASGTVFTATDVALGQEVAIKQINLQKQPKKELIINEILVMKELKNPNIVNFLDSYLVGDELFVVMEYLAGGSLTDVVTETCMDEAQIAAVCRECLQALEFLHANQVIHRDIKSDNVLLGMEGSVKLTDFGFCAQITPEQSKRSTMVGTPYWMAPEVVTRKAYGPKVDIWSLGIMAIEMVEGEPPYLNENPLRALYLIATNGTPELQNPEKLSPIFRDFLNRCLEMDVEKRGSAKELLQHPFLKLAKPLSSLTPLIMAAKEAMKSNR

In the case of Cc1nn(-c2cccc(C#CC3(O)CCCCC3)c2)c2ncnc(N)c12 [Compound 14b, 3-(4-Amino-3-methylpyrazolo[3,4-d]pyrimidin-1-yl)phenylethynylcyclohexan-1-ol], the “PAK2 % inhibitory activity” value (PAK2) is reported as 36%, the “PAK3 % inhibitory activity” value (PAK3) is reported as 5% and the “PAK6 % inhibitory activity” value (PAK6) is reported as 36%. For the same compound, the “H/R-induced oxidative stress (DCF fluorescence, MDA, GSH)” value (primary hepatocytes; 1 μM) was “decrease”, the “Cell damage (LDH release) after H/R” value (primary hepatocytes; 1 μM before reoxygenation, 12 h reoxygenation, vs only H/R) was “markedly decreased” and the “H/R-induced apoptotic cell death” value (primary hepatocytes; 1 μM, Annexin-V staining and Western blotting) was “decrease”. For the same compound, the “Phosphorylation levels of IKKβ and p65 in primary hepatocytes” value (primary hepatocytes; 1 μM, H/R, vs control group) was “decreased”, the “Protein levels of IκBα in primary hepatocytes” value (primary hepatocytes; 1 μM, H/R, vs control group) was “increased” and the H/R-induced cytokine release (primary hepatocytes; 1 μM, culture media protein and hepatocyte mRNA) was “decrease”.

Source: article PMC9354638, “Targeting p21-activated kinase 4 (PAK4) with pyrazolo[3,4-d]pyrimidine derivative SPA7012 attenuates hepatic ischaemia-reperfusion injury in mice” (Journal of Enzyme Inhibition and Medicinal Chemistry, 2022)
